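Method: 48-hour compound exposure of cells in 96-well plates, five concentrations, linear interpolation of endpoints. TGI: concentration producing complete growth inhibition.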
Experiments:
Experiment in all cases: NCI tumour cell line growth inhibition, 48 h
786-0 renal = tested on: 786-0 renal
A498 renal = tested on: A498 renal
A549 NSCLC = tested on: A549 NSCLC
ACHN renal = tested on: ACHN renal
BT-549 breast = tested on: BT-549 breast
CAKI-1 renal = tested on: CAKI-1 renal
CCRF-CEM leukemia = tested on: CCRF-CEM leukemia
COLO 205 colon = tested on: COLO 205 colon
DU-145 prostate = tested on: DU-145 prostate
EKVX NSCLC = tested on: EKVX NSCLC
HCC-2998 colon = tested on: HCC-2998 colon
HCT-116 colon = tested on: HCT-116 colon
HCT-15 colon = tested on: HCT-15 colon
HL-60(TB) leukemia = tested on: HL-60(TB) leukemia
HOP-62 NSCLC = tested on: HOP-62 NSCLC
HOP-92 NSCLC = tested on: HOP-92 NSCLC
HS 578T breast = tested on: HS 578T breast
HT29 colon = tested on: HT29 colon
IGROV1 ovarian = tested on: IGROV1 ovarian
K-562 leukemia = tested on: K-562 leukemia
KM12 colon = tested on: KM12 colon
LOX IMVI melanoma = tested on: LOX IMVI melanoma
M14 melanoma = tested on: M14 melanoma
MALME-3M melanoma = tested on: MALME-3M melanoma
MCF7 breast = tested on: MCF7 breast
MDA-MB-231 breast = tested on: MDA-MB-231 breast
MDA-MB-435 = tested on: MDA-MB-435
MDA-N = tested on: MDA-N
MOLT-4 leukemia = tested on: MOLT-4 leukemia
NCI-H226 lung = tested on: NCI-H226 lung
NCI-H23 lung = tested on: NCI-H23 lung
NCI-H460 lung = tested on: NCI-H460 lung
NCI-H522 lung = tested on: NCI-H522 lung
NCI/ADR-RES ovarian = tested on: NCI/ADR-RES ovarian
OVCAR-3 ovarian = tested on: OVCAR-3 ovarian
OVCAR-4 ovarian = tested on: OVCAR-4 ovarian
OVCAR-5 ovarian = tested on: OVCAR-5 ovarian
OVCAR-8 ovarian = tested on: OVCAR-8 ovarian
PC-3 prostate = tested on: PC-3 prostate
RPMI-8226 leukemia = tested on: RPMI-8226 leukemia
RXF 393 renal = tested on: RXF 393 renal
SF-268 CNS = tested on: SF-268 CNS
SF-295 CNS = tested on: SF-295 CNS
SF-539 CNS = tested on: SF-539 CNS
SK-MEL-2 melanoma = tested on: SK-MEL-2 melanoma
SK-MEL-28 melanoma = tested on: SK-MEL-28 melanoma
SK-MEL-5 melanoma = tested on: SK-MEL-5 melanoma
SK-OV-3 ovarian = tested on: SK-OV-3 ovarian
SN12C renal = tested on: SN12C renal
SNB-19 CNS = tested on: SNB-19 CNS
SNB-75 CNS = tested on: SNB-75 CNS
SR leukemia = tested on: SR leukemia
SW-620 colon = tested on: SW-620 colon
T-47D breast = tested on: T-47D breast
TK-10 renal = tested on: TK-10 renal
U251 CNS = tested on: U251 CNS
UACC-257 melanoma = tested on: UACC-257 melanoma
UACC-62 melanoma = tested on: UACC-62 melanoma
UO-31 renal = tested on: UO-31 renal

O=[N+]([O-])/C(C(Cl)=C(Cl)Cl)=C(/Sc1ccccc1)N1CCOCC1
TGI (786-0 renal): 4.51 µM
TGI (A498 renal): 28.1 µM
TGI (A549 NSCLC): 41.7 µM
TGI (ACHN renal): 15 µM
TGI (BT-549 breast): 15 µM
TGI (CAKI-1 renal): 13 µM
TGI (CCRF-CEM leukemia): 4.66 µM
TGI (COLO 205 colon): 11 µM
TGI (DU-145 prostate): 25.2 µM
TGI (EKVX NSCLC): 25.7 µM
TGI (HCC-2998 colon): 29.9 µM
TGI (HCT-116 colon): 3.27 µM
TGI (HCT-15 colon): 10.9 µM
TGI (HL-60(TB) leukemia): 4.51 µM
TGI (HOP-62 NSCLC): 33.5 µM
TGI (HOP-92 NSCLC): 6.27 µM
TGI (HS 578T breast): 59.5 µM
TGI (HT29 colon): 26.2 µM
TGI (IGROV1 ovarian): 11.1 µM
TGI (K-562 leukemia): 3.89 µM
TGI (KM12 colon): 32.7 µM
TGI (LOX IMVI melanoma): 3.04 µM
TGI (M14 melanoma): 9.24 µM
TGI (MALME-3M melanoma): 18.2 µM
TGI (MCF7 breast): 8.53 µM
TGI (MDA-MB-231 breast): 19.8 µM
TGI (MDA-MB-435): 9.2 µM
TGI (MDA-N): 14.6 µM
TGI (MOLT-4 leukemia): 4.61 µM
TGI (NCI-H226 lung): 26.5 µM
TGI (NCI-H23 lung): 29.8 µM
TGI (NCI-H460 lung): 27.1 µM
TGI (NCI-H522 lung): 9.36 µM
TGI (NCI/ADR-RES ovarian): 38.4 µM
TGI (OVCAR-3 ovarian): 8.87 µM
TGI (OVCAR-4 ovarian): 28.4 µM
TGI (OVCAR-5 ovarian): 31 µM
TGI (OVCAR-8 ovarian): 4.06 µM
TGI (PC-3 prostate): 14.8 µM
TGI (RPMI-8226 leukemia): 5.73 µM
TGI (RXF 393 renal): 3.7 µM
TGI (SF-268 CNS): 17 µM
TGI (SF-295 CNS): 36.4 µM
TGI (SF-539 CNS): 25.5 µM
TGI (SK-MEL-2 melanoma): 18.1 µM
TGI (SK-MEL-28 melanoma): 17.6 µM
TGI (SK-MEL-5 melanoma): 11.4 µM
TGI (SK-OV-3 ovarian): 79.8 µM
TGI (SN12C renal): 19.3 µM
TGI (SNB-19 CNS): 20.2 µM
TGI (SNB-75 CNS): 24.4 µM
TGI (SR leukemia): 5.62 µM
TGI (SW-620 colon): 6.96 µM
TGI (T-47D breast): 16 µM
TGI (TK-10 renal): 18.3 µM
TGI (U251 CNS): 23.5 µM
TGI (UACC-257 melanoma): 23.6 µM
TGI (UACC-62 melanoma): 14 µM
TGI (UO-31 renal): 16.6 µM

COc1cc2c(OC)c(c1)CCCC1=CC(=O)C=C(CCC2)C1=O
TGI (786-0 renal): > 55.1 µM
TGI (A498 renal): > 100 µM
TGI (A549 NSCLC): > 100 µM
TGI (ACHN renal): > 100 µM
TGI (BT-549 breast): 92.3 µM
TGI (CAKI-1 renal): > 100 µM
TGI (CCRF-CEM leukemia): 20.1 µM
TGI (COLO 205 colon): > 31.6 µM
TGI (DU-145 prostate): > 100 µM
TGI (EKVX NSCLC): > 87.4 µM
TGI (HCC-2998 colon): > 100 µM
TGI (HCT-116 colon): 38.1 µM
TGI (HCT-15 colon): 98.4 µM
TGI (HL-60(TB) leukemia): 24.6 µM
TGI (HOP-62 NSCLC): > 100 µM
TGI (HOP-92 NSCLC): 36.6 µM
TGI (HS 578T breast): > 100 µM
TGI (HT29 colon): > 100 µM
TGI (IGROV1 ovarian): > 100 µM
TGI (K-562 leukemia): 34.6 µM
TGI (KM12 colon): 59.6 µM
TGI (LOX IMVI melanoma): 31.1 µM
TGI (M14 melanoma): > 64.5 µM
TGI (MALME-3M melanoma): 75.8 µM
TGI (MCF7 breast): > 100 µM
TGI (MDA-MB-231 breast): > 66.4 µM
TGI (MDA-MB-435): 56.2 µM
TGI (MDA-N): 30.2 µM
TGI (MOLT-4 leukemia): 15.7 µM
TGI (NCI-H226 lung): > 100 µM
TGI (NCI-H23 lung): > 100 µM
TGI (NCI-H460 lung): > 100 µM
TGI (NCI-H522 lung): 46.2 µM
TGI (NCI/ADR-RES ovarian): > 65.7 µM
TGI (OVCAR-3 ovarian): 55.1 µM
TGI (OVCAR-4 ovarian): 31.1 µM
TGI (OVCAR-5 ovarian): > 100 µM
TGI (OVCAR-8 ovarian): > 31.6 µM
TGI (PC-3 prostate): > 100 µM
TGI (RPMI-8226 leukemia): 25.9 µM
TGI (RXF 393 renal): 76.7 µM
TGI (SF-268 CNS): > 100 µM
TGI (SF-295 CNS): > 100 µM
TGI (SF-539 CNS): > 69.4 µM
TGI (SK-MEL-28 melanoma): > 100 µM
TGI (SK-MEL-5 melanoma): > 100 µM
TGI (SK-OV-3 ovarian): > 100 µM
TGI (SN12C renal): > 31.6 µM
TGI (SNB-19 CNS): > 100 µM
TGI (SNB-75 CNS): > 100 µM
TGI (SR leukemia): > 56.5 µM
TGI (SW-620 colon): > 77 µM
TGI (T-47D breast): 43.5 µM
TGI (TK-10 renal): > 100 µM
TGI (U251 CNS): > 100 µM
TGI (UACC-257 melanoma): > 100 µM
TGI (UACC-62 melanoma): > 100 µM
TGI (UO-31 renal): > 100 µM

CC1(C)N=C(N)N=C(N)N1c1ccc(CCCCc2ccc(Cl)cc2Cl)cc1
TGI (786-0 renal): 15.3 µM
TGI (A498 renal): 28.8 µM
TGI (A549 NSCLC): 14.7 µM
TGI (ACHN renal): 16.1 µM
TGI (BT-549 breast): 6.3 µM
TGI (CAKI-1 renal): 9.08 µM
TGI (CCRF-CEM leukemia): 76 µM
TGI (COLO 205 colon): 4.88 µM
TGI (DU-145 prostate): 17.3 µM
TGI (EKVX NSCLC): 45.1 µM
TGI (HCC-2998 colon): 17.4 µM
TGI (HCT-116 colon): 15.1 µM
TGI (HCT-15 colon): > 100 µM
TGI (HL-60(TB) leukemia): > 100 µM
TGI (HOP-62 NSCLC): 10.6 µM
TGI (HOP-92 NSCLC): 18 µM
TGI (HS 578T breast): 22.9 µM
TGI (HT29 colon): 13 µM
TGI (IGROV1 ovarian): 10 µM
TGI (K-562 leukemia): > 100 µM
TGI (KM12 colon): 2.19 µM
TGI (LOX IMVI melanoma): 16.4 µM
TGI (M14 melanoma): 14 µM
TGI (MALME-3M melanoma): 16.8 µM
TGI (MCF7 breast): 11.8 µM
TGI (MDA-MB-231 breast): 16.6 µM
TGI (MDA-MB-435): 13.9 µM
TGI (MDA-N): 2.67 µM
TGI (MOLT-4 leukemia): > 100 µM
TGI (NCI-H23 lung): 11.9 µM
TGI (NCI-H460 lung): 2.48 µM
TGI (NCI-H522 lung): 14.3 µM
TGI (NCI/ADR-RES ovarian): > 100 µM
TGI (OVCAR-3 ovarian): 5.5 µM
TGI (OVCAR-4 ovarian): 13.5 µM
TGI (OVCAR-5 ovarian): 20.9 µM
TGI (OVCAR-8 ovarian): 16.1 µM
TGI (PC-3 prostate): 3.27 µM
TGI (RPMI-8226 leukemia): 19.2 µM
TGI (RXF 393 renal): 20.4 µM
TGI (SF-268 CNS): 15.9 µM
TGI (SF-295 CNS): 22 µM
TGI (SF-539 CNS): 8.74 µM
TGI (SK-MEL-2 melanoma): 13.5 µM
TGI (SK-MEL-28 melanoma): 19.2 µM
TGI (SK-MEL-5 melanoma): 2.84 µM
TGI (SK-OV-3 ovarian): 24.7 µM
TGI (SN12C renal): 12.7 µM
TGI (SNB-19 CNS): 11 µM
TGI (SR leukemia): 60.4 µM
TGI (SW-620 colon): 12.9 µM
TGI (T-47D breast): 23.9 µM
TGI (TK-10 renal): 15.7 µM
TGI (U251 CNS): 15.2 µM
TGI (UACC-257 melanoma): 8.65 µM
TGI (UO-31 renal): 43.9 µM
